ChEMBL document CHEMBL1125025, “11 beta-methoxy-, 11 beta-ethyl- and 17 alpha-ethynyl-substituted 16 alpha-fluoroestradiols: receptor-based imaging agents with enhanced uptake efficiency and selectivity” (J Med Chem, 1990)

What was measured:
[1] = biological target: T1, Alpha-fetoprotein (Rattus norvegicus) (UniProt P02773); assay: Binding affinity against Alphafetoprotein (AFP), in rodents.; design: reference not given here
T1 sequence (whole entry): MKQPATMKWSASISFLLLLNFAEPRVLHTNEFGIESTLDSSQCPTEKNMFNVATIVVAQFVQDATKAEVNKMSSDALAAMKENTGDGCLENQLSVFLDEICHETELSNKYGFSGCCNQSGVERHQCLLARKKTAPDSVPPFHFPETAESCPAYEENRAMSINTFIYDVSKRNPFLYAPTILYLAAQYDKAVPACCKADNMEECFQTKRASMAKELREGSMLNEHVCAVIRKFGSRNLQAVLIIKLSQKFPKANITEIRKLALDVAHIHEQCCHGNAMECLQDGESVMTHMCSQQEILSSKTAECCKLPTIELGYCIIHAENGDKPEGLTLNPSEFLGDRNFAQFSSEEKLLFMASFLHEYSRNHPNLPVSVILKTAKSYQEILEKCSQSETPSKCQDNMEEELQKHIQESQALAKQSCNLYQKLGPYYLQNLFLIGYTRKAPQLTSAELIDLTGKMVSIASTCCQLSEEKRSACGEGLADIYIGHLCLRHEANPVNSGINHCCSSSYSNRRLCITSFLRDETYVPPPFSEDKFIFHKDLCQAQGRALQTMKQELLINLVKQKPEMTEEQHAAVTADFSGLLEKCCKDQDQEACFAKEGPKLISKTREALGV

[2] = biological target: T2, Sex hormone-binding globulin (Homo sapiens) (UniProt P04278); assay: Binding affinity against Sex steroid binding protein(SBP) of human serum; design: reference not given here
T2 sequence (whole entry): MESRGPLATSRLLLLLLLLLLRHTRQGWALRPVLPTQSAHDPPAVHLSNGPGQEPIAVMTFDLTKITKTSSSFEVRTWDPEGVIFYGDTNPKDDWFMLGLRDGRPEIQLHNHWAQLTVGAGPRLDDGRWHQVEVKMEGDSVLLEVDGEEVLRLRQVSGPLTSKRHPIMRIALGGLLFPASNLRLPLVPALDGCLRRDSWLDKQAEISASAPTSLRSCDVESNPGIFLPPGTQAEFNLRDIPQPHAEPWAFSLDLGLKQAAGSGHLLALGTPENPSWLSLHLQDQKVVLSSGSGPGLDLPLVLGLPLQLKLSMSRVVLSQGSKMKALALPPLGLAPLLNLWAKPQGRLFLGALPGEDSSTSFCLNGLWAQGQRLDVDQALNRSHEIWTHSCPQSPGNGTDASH

| SMILES | relative binding affinity (RBA) [1] | relative binding affinity (RBA) [2] |
| --- | --- | --- |
| CC[C@H]1C[C@]2(C)[C@@H](O)CC[C@H]2[C@@H]2CCc3cc(O)ccc3[C@@H]12 | 1.21 | 40.8 |
| C#C[C@]1(O)[C@H](F)C[C@H]2[C@@H]3CCc4cc(O)ccc4[C@H]3CC[C@@]21C | 0.94 | 0.43 |
| CC[C@H]1C[C@]2(C)[C@@H](O)[C@H](F)C[C@H]2[C@@H]2CCc3cc(O)ccc3[C@@H]12 | 1.47 | 2.24 |
| CO[C@H]1C[C@]2(C)[C@@H](O)CC[C@H]2[C@@H]2CCc3cc(O)ccc3[C@H]21 | 0.26 | 1.72 |
| C#C[C@]1(O)CC[C@H]2[C@@H]3CCc4cc(O)ccc4[C@H]3CC[C@@]21C | 3.51 | 1.81 |
| C[C@]12CC[C@@H]3c4ccc(O)cc4CC[C@H]3[C@@H]1C[C@@H](F)[C@@H]2O | 101 | 9.5 |

Next, values leading:

| relative binding affinity (RBA) [1] | relative binding affinity (RBA) [2] | SMILES |
| --- | --- | --- |
| 0.51 | 0.53 | CO[C@H]1C[C@]2(C)[C@@H](O)[C@H](F)C[C@H]2[C@@H]2CCc3cc(O)ccc3[C@H]21 |
| 100 | 100 | C[C@]12CC[C@@H]3c4ccc(O)cc4CC[C@H]3[C@@H]1CC[C@@H]2O |
